Results on 11 compounds are retold here after patent EP1568690A1, “The use of carbocyclic and heterocyclic substituted semicarbazones and thiosemicarbazones as sodium channel blockers” (Euro-Celtique S.A., priority 1997, dated 1998).

Test [1] has as its system maximal electroshock-induced seizures (MES). Nature of the test: Maximal electroshock-induced seizure (MES) test. The test is classed as in vivo. Conditions: mice; for MES (ED50 mg/kg): 30 min; for ED50: Mus musculus, po, 0.5 h. As to the method:
Mice were restrained by gripping the loose skin on their dorsal surface and saline-coated corneal electrodes were held lightly against the two cornea. […] A tonic seizure was defined as a hindlimb extension in excess of 90 degrees from plane of the body.
4-(3,4-Methylenedioxyphenoxy)benzaldehyde semicarbazone was administered orally to mice 30 min before the test procedure. […]
In general terms: In the maximal electroshock model the usual endpoint is tonic extension of the hind limbs.

Test [2] has as its system voltage-sensitive Na^+ channels. Nature of the test: Electrophysiological assay: whole-cell patch-clamp of Na^+ currents in acutely dissociated hippocampal neurons. The format is cell-based, rat. As to the method:
Cell preparation: Acute cultures of rat hippocampal neurons were prepared daily using a modification of procedures described previously (Kuo and Bean, Mol. Pharm. 46:716-725 (1994)). Briefly, hippocampi were isolated from 3-11 day old rat pup brains (Sprague-Dawley; Charles River) and were sectioned, by hand, into 0.5 - 1 mm thick transverse slices (Whittemore and Koerner, Eur. J. Pharm. 192:435-438 (1991)). Slices were incubated for at least 30 min at room temperature (20 - 24 °C) in an oxygenated medium (124 mM NaCl, 3.3 mM KCl, 2.4 mM MgSO4, 2.5 mM CaCl2, 1.2 mM KH2PO4, 26 mM NaHCO3, pH = 7.4) continuously bubbled with 5% CO2 / 95 % O2. […]
Patch-clamp recordings of voltage-sensitive Na^+ currents: Whole-cell voltage-clamp recordings were made using conventional patch-clamp technique (Hamill et al., Pfluegers Arch. 391:85-100 (1981)) with an Axopatch 200A amplifier (Axon Instruments, Foster City, CA). […] Currents were recorded at room temperature (22-25°C), filtered at 5 kHz with 4-pole Bessel filter, digitized at 20-50-µs intervals, and stored using Digidata 1200 analog/digital interface with Pclamp6/Clampex software (Axon Instruments). […] The inhibitory potency of drugs was assessed by measuring reductions in the peak amplitude of Na^+ currents induced by increasing concentrations of compounds tested. […]
In general terms: Patch clamp records ionic current or voltage across a cell membrane.

Test [3] deals with Na^+ channel Site 1. The format is binding. Conditions: [^3H] saxitoxin, rat forebrain membranes.
For test [4], the system named is Na^+ channel Site 2. The format is binding. Conditions: [^3H] batrachotoxin, rat forebrain membranes.
In test [5] the test system is formalin test in mice. As to the kind of experiment: Formalin test (antinociceptive activity, time licking/biting injected paw). The format is in vivo. Conditions: Mus musculus. As to the method: Analgesic activity of 4-(4-fluorophenoxy)benzaldehyde semicarbazone was assessed in the formalin test. The method of Hunskaar, et al., J. Neurosci. Method 14:69-76 (1985), was used with some modifications as described in the following.
Mice were placed in Plexiglas jars for at least 1 h to accommodate to experimental conditions. Following the accommodation period, mice were weighed and injected with 4-(4-Fluorophenoxy)benzaldehyde semicarbazone by i.p. or p.o. administration. Control mice were injected with saline (10 ml/kg). Fifteen min (i.p.) or 30 min (p.o.) following 4-(4-fluorophenoxy)benzaldehyde semicarbazone administration mice were injected with formalin ([…] of 5% formaldehyde solution in saline) into the dorsal surface of the right hand paw. Mice were immediately transferred to the Plexiglas jars and the amount of time that each mouse spent licking and/or biting the injected paw was recorded for every 5-min period over the 1 h observation period. The data presented here are at 0-5 min (early phase) and from 5-60 min (late phase) following formalin injections. The late phase of the formalin test is the average of eleven 5-min periods.
The compound has a potency of ED50 about 5-10 mg/kg by both routes of administration.

Setting [6] is: determined as described in example 38.
Setting [7] is: determined as described in example 38, read-out: MES (ED50 mg/kg).

pIC50, pKd: −log10 of the molar value. Read-outs that look alike come from different tables or passages of the source. Where only a bound is given, the exact number is not on record here.

Turning to “4-(4-fluorophenyl)benzaldehyde 2'-methylsemicarbazone”, the “MES (ED50 mg/kg)” value in test [1] (setting [6]) was 1.5 mg/kg.
As for `CN(NCc1ccc(Oc2ccc(F)cc2)cc1)C(N)=O` [2'-methyl-4-(4-flourophenoxy)phenylmethylsemicarbazide], the ED50 in test [1] (setting [7]) was determined as 3.2 mg/kg.
On the same count and under the same terms, the figure for `NC(=O)NN=Cc1ccc(-c2ccc(F)cc2)c(F)c1` [3-fluoro-4-(4-fluorophenyl)benzaldehyde semicarbazone] is 3 mg/kg.
Regarding `NC(=O)NN=Cc1ccc(Oc2ccc3c(c2)OCO3)cc1` [4-(3,4-methylenedioxyphenoxy)benzaldehyde semicarbazone], the ED50 in test [1] (read-out: ED50 (the dose provided protection of 50% of animals), administered orally 30 min before the test) amounted to 5.3 mg/kg; in test [1] (setting [7]), 3.4 mg/kg.
As to `CN(N=Cc1ccc(Oc2ccc(F)cc2)c(F)c1)C(N)=O` [4-(4-Fluorophenoxy)-3-fluorobenzaldehyde 2'-methylsemicarbazone], the ED50 in test [1] (setting [7]) turned out to be 0.9 mg/kg.
Same read-out and setting: the figure for `CCCCOc1ccc(Oc2ccc(C=NNC(N)=O)cc2)cc1` [4-(4-butoxyphenoxy)benzaldehyde semicarbazone] is 14.9 mg/kg.
For `NC(=O)NN=Cc1ccc(Oc2ccc(F)cc2)cc1` [4-(4-fluorophenoxy)benzaldehyde semicarbazone], the “effect on Na^+ currents” value in test [2] (concentrations between 0.1 - 10 µM, holding membrane voltage of -100 mV) is given as “very little effect”. For the same compound, the pKd (as a rule, the Kd on a negative log10 scale, so that one unit is a factor of ten) in test [2] (for inactivated Na^+ channels, read-out: apparent antagonist dissociation constant (Kd)) was about 6.22. The results for the pIC50 in test [3] and in test [4] were under 4.00 and 4.66, respectively. The ED50 is 5 to 10 mg/kg in test [5] (ip, 0.25 h, i.p., formalin 15 min after administration); 5 to 10 mg/kg in test [5] (po, 0.5 h, p.o., formalin 30 min after administration); 1.6 mg/kg in test [1] (setting [7]).
Consider `NC(=O)NNCc1ccc(Oc2ccc(F)cc2)cc1` [4-(4-fluorophenoxy)phenylmethylsemicarbazide], for which the “MES (ED50 mg/kg)” value in test [1] (setting [6]) is given as 4.2 mg/kg.
Take `NC(=O)NN=Cc1ccc(Oc2ccc3c(c2)CCC3)cc1` [4-(5-indanoxy)benzaldehyde semicarbazone, 4-(5-Indanoxy)benzaldehyde semicarbazone]: in test [1] (setting [7]), the ED50 is 1.7 mg/kg.
Same read-out and setting: under `NC(=O)NN=Cc1ccc(OC2CCCCCC2)cc1` [4-cycloheptoxybenzaldehyde semicabazone, 4-Cycloheptyloxybenzaldehyde semicarbazone] stands 3.2 mg/kg.
Turning to `CCN(CC)CC(=O)Nc1c(C)cccc1C` [Lidocaine, reference compound], the values for the pIC50 in test [3] and in test [4] were under 4.00 and 4.52, respectively.
